According to US20120302618A1, “USE OF BENZYDAMINE IN THE TREATMENT OF P40-DEPENDENT DISEASES” (AZIENDE CHIM. RIUN. ANG. FRANC. A.C.R.A.F. S.p.A., priority 2009, published 2012):
Where “and” joins values, the source holds several entries; their conditions need not be identical. Equal entries are not always repeated.

What was measured:
[1] = system: p40; assay: Inhibition of p40 protein production by anti-CD3 stimulated human PBMCs (Luminex); type: cell-based
Experimental: (§1) The capacity of the compound to inhibit the production of the protein p40 by anti-CD3 stimulated human PBMCs (peripheral blood mononuclear cells) was evaluated. The cells were placed in 96-well plates at a concentration of 2×10^5 cells/well. The compound was tested on a 6-point ½-log dose curve (in the range 0.3-100 μM) and incubated for 1 hour. The cells were then stimulated with anti-CD3 (4 μg/ml) for 48 hours. The amount of p40 produced was measured in the supernatants, suitably diluted with buffer, by using the Luminex 100 system.

[2] = system: TNF; conditions: mice; cited from earlier work
[3] = system: TNF; assay: Inhibition of TNF production by anti-CD3 stimulated human PBMCs (Luminex); type: cell-based
Experimental: as §1, with “expression” for “production”, “TNF” for “p40”

[4] = system: p40; assay: Inhibition of p40 mRNA expression by LPS-stimulated MonoMac6 cells (real-time PCR); type: cell-based, human; conditions: 75 μM, 1 h preincubation, LPS 100 ng/ml for 4 h
Experimental: The capacity of benzydamine to inhibit the expression of p40 by lipopolysaccharide (LPS)-stimulated MonoMac6 cells was evaluated. The cells were placed in 96-well plates at a concentration of 50 000 cells/well. The compound was tested at the concentration of 75 μM and incubated for 1 hour. The cells were then stimulated with LPS (100 ng/ml) for 4 hours. The total RNA was extracted from the cell pellet using the RNeasy mini kit (Qiagen), reverse-transcribed with the TaqMan Reverse transcription reagents synthesis kit (Applied Biosystems) and the cDNA obtained was used for the real-time PCR reaction. The amplification was obtained in 96-well plates using the ABI Prism 7000 sequence detection system (Applied Biosystems), by applying the following temperature profile: 50° C. for 2 minutes, 95° C. for 10 minutes and 45 cycles at 95° C. for 15 seconds and 60° C. for 1 minute. For the amplification, a set of primers and probe specific for human p40 was used (Applied Biosystems, RefSeq NM_002187.2). A set of primers and probe for β-actin was used in separate wells as an internal control of the samples for the purposes of normalization. Once the reaction had taken place, the fluorescence data were analysed using the ABI Prism 7000 SDS software, by calculating the threshold cycle (Ct) for each sample and subsequently performing a relative quantification via the ΔΔCt method.

[5] = 0 μM (so in the source), anti-CD3 4 μg/ml 48 h, human PBMCs
[6] = PBMC, 1 μM, anti-CD3 4 μg/ml 48 h, human PBMCs
[7] = PBMC, 3 μM, anti-CD3 4 μg/ml 48 h, human PBMCs
[8] = PBMC, 10 μM, anti-CD3 4 μg/ml 48 h, human PBMCs
[9] = PBMC, 30 μM, anti-CD3 4 μg/ml 48 h, human PBMCs
[10] = PBMC, 100 μM, anti-CD3 4 μg/ml 48 h, human PBMCs
[11] = PBMC, anti-CD3 stimulated human PBMCs, 48 h
[12] = dose curve 0.3-100 μM, human PBMCs

## CN(C)CCCOc1nn(Cc2ccccc2)c2ccccc12 [Benzydamine]
[1]; [5]
  % inhibition of p40 production: 0%
[1]; [6]
  inhibition at 1 µM: 23%
[1]; [7]
  inhibition at 3 µM: 24%
[1]; [8]
  inhibition at 10 µM: 44%
[1]; [9]
  inhibition at 30 µM: 97%
[1]; [10]
  inhibition at 100 µM: 99%
[1]; [11]
  IC50: 10.1 µM
[1]; [12]
  inhibition of anti-CD3 induced p40 production, range over dose curve: 23-99%
[2]
  dose required for a significant inhibiting effect on TNF production: 20 mg/kg and 40 mg/kg
[3]; [5]
  % inhibition of TNF production: 7%
[3]; [6]
  inhibition at 1 µM: 8%
[3]; [7]
  inhibition at 3 µM: 12%
[3]; [8]
  inhibition at 10 µM: 22%
[3]; [9]
  inhibition at 30 µM: 44%
[3]; [10]
  inhibition at 100 µM: 70%
[3]; [11]
  IC50: 43.1 µM
[3]; anti-CD3 stimulated human PBMCs
  IC50 for TNF relative to IC50 for p40: about 4 fold
[3]; [12]
  inhibition of anti-CD3 induced TNF production, range over dose curve: 8-70%
[4]
  % inhibition of LPS-induced p40 mRNA expression: 80%
